Here are results for three compounds from ChEMBL document CHEMBL4219148, “Discovery of a highly potent orally bioavailable imidazo-[1, 2-a]pyrazine Aurora inhibitor” (Bioorg Med Chem Lett, 2018).

The target of data set [1] is Rho-associated protein kinase 2 (Homo sapiens, UniProt O75116). Nature of the data set: Inhibition of ROCK2 (unknown origin).
A short description of data set [2]: Clearance in dog at 1 mg/kg, iv. In kind it is ADME, organism-based, Canis lupus familiaris. Particulars: in vivo.
Data set [3] can be described thus: Volume of distribution in dog at 1 mg/kg, iv. In kind it is ADME, organism-based, Canis lupus familiaris. Conditions: in vivo.
For data set [4], the target named is T1, Aurora kinase B (Homo sapiens, UniProt Q96GD4). Nature of the data set: Inhibition of Aurora B (unknown origin) using Tamra-PKAtide as substrate by fluorescence polarization assay. For orientation: Polarisation of emitted light reports the rotation of a fluorescent probe.
T1 sequence (Q96GD4 whole entry): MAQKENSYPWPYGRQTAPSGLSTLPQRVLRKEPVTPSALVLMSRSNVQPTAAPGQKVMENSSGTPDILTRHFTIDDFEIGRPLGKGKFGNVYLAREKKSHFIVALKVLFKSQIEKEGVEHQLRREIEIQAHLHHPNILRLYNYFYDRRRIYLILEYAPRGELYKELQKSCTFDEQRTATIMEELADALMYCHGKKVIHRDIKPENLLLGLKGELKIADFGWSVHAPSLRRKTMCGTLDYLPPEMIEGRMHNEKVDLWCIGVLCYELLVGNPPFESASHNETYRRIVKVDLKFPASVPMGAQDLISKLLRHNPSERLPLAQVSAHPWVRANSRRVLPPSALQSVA
Data set [5] has as its target T2, Aurora kinase A (Homo sapiens, UniProt O14965).
T2 sequence (O14965 whole entry): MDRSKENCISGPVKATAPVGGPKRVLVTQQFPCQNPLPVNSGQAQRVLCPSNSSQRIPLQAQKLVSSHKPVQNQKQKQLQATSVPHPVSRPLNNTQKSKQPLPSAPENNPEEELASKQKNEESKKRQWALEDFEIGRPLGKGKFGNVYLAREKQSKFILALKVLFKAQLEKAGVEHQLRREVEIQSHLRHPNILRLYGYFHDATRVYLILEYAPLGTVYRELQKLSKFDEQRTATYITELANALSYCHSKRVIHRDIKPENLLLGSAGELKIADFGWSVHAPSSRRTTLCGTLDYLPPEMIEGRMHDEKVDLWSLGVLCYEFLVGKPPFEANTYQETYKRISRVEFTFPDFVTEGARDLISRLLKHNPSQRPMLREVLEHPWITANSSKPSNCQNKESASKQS
Kind of data set: Inhibition of Aurora A (unknown origin) using Tamra-PKAtide as substrate by fluorescence polarization assay.

The target in data set [6] is T3, Serine/threonine-protein kinase Chk1 (Homo sapiens, UniProt O14757).
T3 sequence (O14757 whole entry): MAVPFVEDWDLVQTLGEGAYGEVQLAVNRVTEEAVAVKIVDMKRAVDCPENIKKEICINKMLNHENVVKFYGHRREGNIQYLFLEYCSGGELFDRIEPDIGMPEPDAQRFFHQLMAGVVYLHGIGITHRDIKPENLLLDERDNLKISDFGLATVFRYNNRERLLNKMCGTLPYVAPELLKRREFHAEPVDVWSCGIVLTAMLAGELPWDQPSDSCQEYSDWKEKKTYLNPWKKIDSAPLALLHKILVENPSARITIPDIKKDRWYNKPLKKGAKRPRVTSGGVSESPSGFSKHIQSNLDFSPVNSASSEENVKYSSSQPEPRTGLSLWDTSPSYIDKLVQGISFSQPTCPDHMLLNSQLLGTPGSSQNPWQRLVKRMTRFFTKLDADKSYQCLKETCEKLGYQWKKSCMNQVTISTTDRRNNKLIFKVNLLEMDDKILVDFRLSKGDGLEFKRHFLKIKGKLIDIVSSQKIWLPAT
Kind of data set: Inhibition of CHK1 (unknown origin).

Data set [7] deals with Glycogen synthase kinase-3 beta (Homo sapiens, UniProt P49841). Kind of data set: Inhibition of GSK3b (unknown origin).
Chain of Glycogen synthase kinase-3 beta (P49841 whole entry): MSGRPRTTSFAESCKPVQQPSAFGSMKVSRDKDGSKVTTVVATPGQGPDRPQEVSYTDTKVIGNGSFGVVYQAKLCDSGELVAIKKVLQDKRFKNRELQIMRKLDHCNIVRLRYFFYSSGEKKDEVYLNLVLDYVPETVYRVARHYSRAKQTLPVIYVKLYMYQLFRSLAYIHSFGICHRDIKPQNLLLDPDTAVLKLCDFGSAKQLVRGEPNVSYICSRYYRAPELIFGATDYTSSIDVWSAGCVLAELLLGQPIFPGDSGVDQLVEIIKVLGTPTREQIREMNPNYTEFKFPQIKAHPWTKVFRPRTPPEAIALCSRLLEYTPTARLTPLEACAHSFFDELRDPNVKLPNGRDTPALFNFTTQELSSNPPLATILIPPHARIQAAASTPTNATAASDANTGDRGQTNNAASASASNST
Data set [8] has as its target T1, Aurora kinase B. Nature of the data set: Inhibition of Aurora B in human HCT116 cells assessed as reduction in phosphorylation of Histone H3 at Ser10 residue incubated for 1 hr by Hoechst 33342 dye-based immunofluorescence microscopic method. The data set is classed as cell-based.
Data set [9] addresses T4, Calcium/calmodulin-dependent protein kinase type IV (Homo sapiens, UniProt Q16566).
T4 sequence (Q16566 whole entry): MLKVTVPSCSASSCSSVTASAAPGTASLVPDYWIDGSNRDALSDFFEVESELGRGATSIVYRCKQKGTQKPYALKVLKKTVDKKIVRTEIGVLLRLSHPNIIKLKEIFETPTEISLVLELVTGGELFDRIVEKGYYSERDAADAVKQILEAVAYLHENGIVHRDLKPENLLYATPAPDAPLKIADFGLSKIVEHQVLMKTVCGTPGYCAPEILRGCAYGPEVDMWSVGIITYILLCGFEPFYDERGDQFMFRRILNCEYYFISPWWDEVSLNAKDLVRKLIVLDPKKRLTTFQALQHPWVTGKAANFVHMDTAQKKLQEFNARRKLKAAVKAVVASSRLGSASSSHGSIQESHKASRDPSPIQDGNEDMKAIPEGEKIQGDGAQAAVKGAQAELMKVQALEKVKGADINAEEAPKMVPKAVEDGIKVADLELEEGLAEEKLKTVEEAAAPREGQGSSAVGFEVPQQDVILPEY
Kind of data set: Inhibition of CAMK4 (unknown origin).

Data set [10] has as its target Mitogen-activated protein kinase 1 (Homo sapiens, UniProt P28482). Nature of the data set: Inhibition of ERK2 (unknown origin).
Data set [11] has as its target T5, Receptor-type tyrosine-protein kinase FLT3 (Homo sapiens, UniProt P36888).
T5 sequence (P36888 whole entry): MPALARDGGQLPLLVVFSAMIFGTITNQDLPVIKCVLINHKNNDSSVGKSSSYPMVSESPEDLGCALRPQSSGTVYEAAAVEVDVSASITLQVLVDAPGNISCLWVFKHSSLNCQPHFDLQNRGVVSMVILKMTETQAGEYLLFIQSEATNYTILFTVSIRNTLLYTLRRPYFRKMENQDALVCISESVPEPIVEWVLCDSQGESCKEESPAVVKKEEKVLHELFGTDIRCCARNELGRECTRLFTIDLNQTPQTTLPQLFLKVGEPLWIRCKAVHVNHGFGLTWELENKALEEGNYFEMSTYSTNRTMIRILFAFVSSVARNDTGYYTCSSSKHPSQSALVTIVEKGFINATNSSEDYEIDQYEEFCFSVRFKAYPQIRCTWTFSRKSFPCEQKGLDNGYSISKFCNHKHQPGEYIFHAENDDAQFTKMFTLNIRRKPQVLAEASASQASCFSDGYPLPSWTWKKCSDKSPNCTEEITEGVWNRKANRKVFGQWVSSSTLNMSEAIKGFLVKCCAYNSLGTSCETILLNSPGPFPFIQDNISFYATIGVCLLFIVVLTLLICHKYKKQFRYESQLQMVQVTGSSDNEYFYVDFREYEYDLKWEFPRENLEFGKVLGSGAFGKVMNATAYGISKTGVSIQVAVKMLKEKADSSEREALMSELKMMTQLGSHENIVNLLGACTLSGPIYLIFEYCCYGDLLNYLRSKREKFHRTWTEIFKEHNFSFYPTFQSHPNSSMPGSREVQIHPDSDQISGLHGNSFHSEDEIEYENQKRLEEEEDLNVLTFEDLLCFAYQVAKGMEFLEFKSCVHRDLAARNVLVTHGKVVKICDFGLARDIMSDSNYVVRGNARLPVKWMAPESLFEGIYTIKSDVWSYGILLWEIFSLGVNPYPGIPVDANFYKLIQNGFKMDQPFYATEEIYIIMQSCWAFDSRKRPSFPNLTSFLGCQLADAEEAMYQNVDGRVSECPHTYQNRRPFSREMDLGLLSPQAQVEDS
Kind of data set: Inhibition of FLT3 (unknown origin).

Data set [12] can be described thus: Protein binding in rat plasma. In kind it is ADME, cell-free. Particulars: read-out: PPB (converted).
The target of data set [13] is Tyrosine-protein kinase JAK2 (Homo sapiens, UniProt O60674). Kind of data set: Inhibition of JAK2 (unknown origin).
Chain of Tyrosine-protein kinase JAK2 (O60674 whole entry): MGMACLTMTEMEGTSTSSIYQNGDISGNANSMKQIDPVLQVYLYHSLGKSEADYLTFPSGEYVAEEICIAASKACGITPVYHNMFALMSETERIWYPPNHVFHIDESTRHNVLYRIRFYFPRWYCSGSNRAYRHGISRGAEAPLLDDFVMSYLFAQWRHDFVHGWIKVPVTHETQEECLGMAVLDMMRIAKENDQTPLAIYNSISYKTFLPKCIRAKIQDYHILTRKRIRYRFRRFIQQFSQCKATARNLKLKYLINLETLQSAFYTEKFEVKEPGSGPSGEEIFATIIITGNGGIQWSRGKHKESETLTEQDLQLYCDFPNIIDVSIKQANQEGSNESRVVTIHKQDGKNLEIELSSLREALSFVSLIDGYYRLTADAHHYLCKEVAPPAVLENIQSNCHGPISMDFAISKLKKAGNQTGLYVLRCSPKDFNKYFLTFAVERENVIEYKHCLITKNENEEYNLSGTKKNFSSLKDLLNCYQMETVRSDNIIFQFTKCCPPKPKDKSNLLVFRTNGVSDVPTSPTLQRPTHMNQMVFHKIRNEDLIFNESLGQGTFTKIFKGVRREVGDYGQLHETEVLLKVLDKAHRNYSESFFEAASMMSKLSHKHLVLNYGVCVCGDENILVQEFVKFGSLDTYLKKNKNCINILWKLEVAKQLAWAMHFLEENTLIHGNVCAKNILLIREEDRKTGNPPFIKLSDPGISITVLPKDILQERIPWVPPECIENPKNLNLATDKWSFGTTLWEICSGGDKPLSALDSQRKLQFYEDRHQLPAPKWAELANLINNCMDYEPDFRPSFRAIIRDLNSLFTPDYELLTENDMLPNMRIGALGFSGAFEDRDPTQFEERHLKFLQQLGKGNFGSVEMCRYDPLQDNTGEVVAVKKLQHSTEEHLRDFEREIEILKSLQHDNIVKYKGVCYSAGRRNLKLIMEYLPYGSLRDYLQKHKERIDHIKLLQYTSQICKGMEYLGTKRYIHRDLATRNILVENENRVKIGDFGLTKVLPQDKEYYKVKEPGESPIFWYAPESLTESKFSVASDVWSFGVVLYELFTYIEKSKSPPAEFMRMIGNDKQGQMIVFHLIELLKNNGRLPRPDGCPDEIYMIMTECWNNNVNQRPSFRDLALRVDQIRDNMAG
Data set [14] has as its target Cytochrome P450 3A4 (Homo sapiens, UniProt P08684). Nature of the data set: Inhibition of CYP3A4 in human liver microsomes. In kind it is ADME.
In data set [15] the target is Hepatocyte growth factor receptor (Homo sapiens, UniProt P08581). Nature of the data set: Inhibition of MET (unknown origin).
Chain of Hepatocyte growth factor receptor (P08581 whole entry): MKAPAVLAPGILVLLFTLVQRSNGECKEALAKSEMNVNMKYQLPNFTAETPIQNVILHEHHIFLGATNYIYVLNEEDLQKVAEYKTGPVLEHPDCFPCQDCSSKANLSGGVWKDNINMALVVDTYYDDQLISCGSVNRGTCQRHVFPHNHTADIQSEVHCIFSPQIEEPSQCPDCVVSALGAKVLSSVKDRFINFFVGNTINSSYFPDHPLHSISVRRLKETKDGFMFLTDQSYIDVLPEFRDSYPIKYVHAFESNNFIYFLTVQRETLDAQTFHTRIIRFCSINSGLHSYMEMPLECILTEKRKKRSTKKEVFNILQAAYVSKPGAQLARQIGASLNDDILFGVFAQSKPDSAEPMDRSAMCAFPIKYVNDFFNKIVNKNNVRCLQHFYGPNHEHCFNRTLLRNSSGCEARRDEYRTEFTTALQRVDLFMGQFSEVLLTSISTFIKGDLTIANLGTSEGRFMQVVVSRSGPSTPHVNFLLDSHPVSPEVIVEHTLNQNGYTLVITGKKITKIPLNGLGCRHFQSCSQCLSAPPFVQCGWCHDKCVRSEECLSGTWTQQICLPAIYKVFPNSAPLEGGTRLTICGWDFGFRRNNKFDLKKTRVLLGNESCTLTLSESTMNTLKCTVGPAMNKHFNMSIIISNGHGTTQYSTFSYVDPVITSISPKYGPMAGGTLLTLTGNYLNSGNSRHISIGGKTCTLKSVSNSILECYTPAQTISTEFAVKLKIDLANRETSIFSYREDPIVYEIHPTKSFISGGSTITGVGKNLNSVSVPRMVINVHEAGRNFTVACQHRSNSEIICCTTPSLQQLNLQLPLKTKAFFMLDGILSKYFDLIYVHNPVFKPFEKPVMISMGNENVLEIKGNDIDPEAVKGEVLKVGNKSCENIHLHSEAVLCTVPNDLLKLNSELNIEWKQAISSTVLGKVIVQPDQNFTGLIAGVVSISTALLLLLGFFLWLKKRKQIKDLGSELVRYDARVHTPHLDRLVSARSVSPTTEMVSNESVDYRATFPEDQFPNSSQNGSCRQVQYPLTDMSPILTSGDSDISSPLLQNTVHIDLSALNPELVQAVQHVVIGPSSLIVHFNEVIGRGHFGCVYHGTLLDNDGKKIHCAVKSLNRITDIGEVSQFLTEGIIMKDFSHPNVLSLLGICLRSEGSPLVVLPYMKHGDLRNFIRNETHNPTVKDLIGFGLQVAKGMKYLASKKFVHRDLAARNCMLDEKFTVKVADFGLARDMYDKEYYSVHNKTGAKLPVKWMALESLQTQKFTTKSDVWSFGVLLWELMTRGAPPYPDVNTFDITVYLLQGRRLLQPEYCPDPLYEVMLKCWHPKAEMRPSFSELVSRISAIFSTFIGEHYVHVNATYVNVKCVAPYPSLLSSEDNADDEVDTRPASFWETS

What is called pIC50 is the IC50 on a negative log10 scale, so that one unit is a factor of ten. One may read the clearance as the volume of plasma or blood freed of the substance per unit of time. Higher therefore signals efficient removal. In general, Vd refers to the apparent volume that relates the amount in the body to the concentration in plasma or blood. Low values mean little distribution into tissue, high ones wide distribution into tissue. Broadly, the pEC50 is the EC50 on a negative log10 scale, so that one unit is a factor of ten.

pEC50, pIC50: −log10 of the molar value. Some results are limits rather than exact numbers.

Chain of Mitogen-activated protein kinase 1 (P28482 whole entry): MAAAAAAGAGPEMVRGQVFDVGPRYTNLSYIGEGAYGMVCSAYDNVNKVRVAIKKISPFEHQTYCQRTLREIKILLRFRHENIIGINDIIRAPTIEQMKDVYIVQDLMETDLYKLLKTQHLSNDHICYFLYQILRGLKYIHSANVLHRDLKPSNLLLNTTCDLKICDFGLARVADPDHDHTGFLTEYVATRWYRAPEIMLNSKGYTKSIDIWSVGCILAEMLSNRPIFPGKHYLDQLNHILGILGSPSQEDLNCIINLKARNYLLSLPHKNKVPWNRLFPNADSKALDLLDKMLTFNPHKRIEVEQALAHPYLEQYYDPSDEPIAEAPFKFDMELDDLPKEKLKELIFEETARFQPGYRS
Chain of Rho-associated protein kinase 2 (O75116 whole entry): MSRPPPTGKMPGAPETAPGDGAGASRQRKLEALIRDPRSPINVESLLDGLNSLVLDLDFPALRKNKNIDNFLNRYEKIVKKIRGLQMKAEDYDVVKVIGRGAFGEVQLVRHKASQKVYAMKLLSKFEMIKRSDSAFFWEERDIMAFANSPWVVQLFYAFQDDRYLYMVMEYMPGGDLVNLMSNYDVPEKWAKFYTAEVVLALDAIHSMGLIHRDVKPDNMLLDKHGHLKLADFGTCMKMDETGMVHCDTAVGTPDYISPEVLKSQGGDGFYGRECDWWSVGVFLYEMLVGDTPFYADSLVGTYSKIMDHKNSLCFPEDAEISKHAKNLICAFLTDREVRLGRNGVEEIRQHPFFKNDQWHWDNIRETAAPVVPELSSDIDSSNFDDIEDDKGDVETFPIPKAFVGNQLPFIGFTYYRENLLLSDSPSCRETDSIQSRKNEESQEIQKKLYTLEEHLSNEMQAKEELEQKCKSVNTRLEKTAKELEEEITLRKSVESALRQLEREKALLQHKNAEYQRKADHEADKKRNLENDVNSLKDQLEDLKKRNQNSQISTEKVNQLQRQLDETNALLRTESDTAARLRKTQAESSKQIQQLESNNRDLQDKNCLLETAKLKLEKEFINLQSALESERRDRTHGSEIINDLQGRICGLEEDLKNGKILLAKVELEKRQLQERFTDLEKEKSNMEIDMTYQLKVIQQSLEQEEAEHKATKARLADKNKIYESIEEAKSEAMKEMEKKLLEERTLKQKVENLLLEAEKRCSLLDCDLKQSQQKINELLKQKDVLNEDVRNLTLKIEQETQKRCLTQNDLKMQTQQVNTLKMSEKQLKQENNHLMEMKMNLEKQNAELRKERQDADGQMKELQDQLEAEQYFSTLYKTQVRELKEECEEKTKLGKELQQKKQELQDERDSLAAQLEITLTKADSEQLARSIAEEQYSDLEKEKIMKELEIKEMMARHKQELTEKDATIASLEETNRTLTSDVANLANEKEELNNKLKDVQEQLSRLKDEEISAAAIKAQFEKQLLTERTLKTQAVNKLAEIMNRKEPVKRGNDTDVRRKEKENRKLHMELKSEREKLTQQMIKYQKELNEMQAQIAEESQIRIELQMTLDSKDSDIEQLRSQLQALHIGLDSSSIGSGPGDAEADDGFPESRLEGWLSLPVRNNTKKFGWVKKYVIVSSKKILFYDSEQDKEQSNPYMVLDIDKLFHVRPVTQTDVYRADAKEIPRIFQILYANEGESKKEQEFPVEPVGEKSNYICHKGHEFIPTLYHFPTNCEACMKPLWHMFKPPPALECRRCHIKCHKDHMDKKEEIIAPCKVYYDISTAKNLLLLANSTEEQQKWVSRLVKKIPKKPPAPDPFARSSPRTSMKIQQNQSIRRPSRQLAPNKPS

With `Cc1cn2c(-c3cn[nH]c3)cnc2c(Nc2cc(Cc3ccccn3)ns2)n1`, the pIC50 in data set [1] is below 6.30; in data set [4] it was above 7.89; in [5], above 8.40; in data set [6], 6.44; in data set [7], below 6.30; in data set [9], below 6.30. Also, the pIC50 was below 6.30 in [10]; 7.85 in data set [11]; below 6.30 in data set [13]; below 4.70 in data set [14]; below 6.30 in data set [15]. The compound further registered a clearance in data set [2] of 5 mL/min/kg. For the same compound, the Vd in [3] turned out to be 0.2 L/kg. Besides, the pEC50 in [8] is 6.93. Moreover, in data set [12], the fraction unbound is 0.004.
Consider `CCN(CCO)Cc1cc(Nc2nc(C)cn3c(-c4cn[nH]c4)cnc23)sn1`, for which the pIC50 is below 6.30 in data set [1]; above 7.89 in data set [4]; above 8.40 in data set [5]; 7.89 in [6]; below 6.30 in [7]; below 6.30 in data set [9]. For the same compound, the pIC50 in [10] is below 6.30; in data set [11], 8.30; in [13], below 6.30; in data set [15] it was below 6.30. In addition, in data set [8], the pEC50 was 7.62.
With `Cc1cn2c(-c3cn[nH]c3)cnc2c(Nc2cc(C(NC(C)(C)C)c3ccccn3)ns2)n1` (single isomer, unassigned; (+)), the pIC50 in data set [1] is below 6.00; in data set [4], at least 7.89; in [5], at least 8.40; in data set [6], 8.15; in [7], below 6.00; in [9] it was below 6.00. Further, the pIC50 in [10] is below 6.00; in data set [11], 8.30; in data set [13], below 6.00; in data set [14] it was below 4.70; in [15] it was below 6.00. The compound further yielded a clearance in [2] of 9.4 mL/min/kg. The Vd in [3] came to 3.7 L/kg. Further, the pEC50 in data set [8] was above 7.80. The fraction unbound in data set [12] was 0.01.
